From US12077483B2, “Modified amine lipids” (Intellia Therapeutics, Inc., priority 2018, dated 2024)

Columns and labels:
[1] = LNP average particle size and polydispersity by dynamic light scattering; format: physicochemical; conditions: LNP with the compound as amine lipid
Excerpt: The LNPs have a size of about 1 to about 1,000 nm, about 10 to about 500 nm, about 20 to about 500 nm, in a sub-embodiment about 50 to about 400 nm, in a sub-embodiment about 50 to about 300 nm, in a sub-embodiment about 50 to about 200 nm, and in a sub-embodiment about 50 to about 150 nm, and in another sub-embodiment about 60 to about 120 nm. Preferably, the LNPs have a size from about 60 nm to about 100 nm. The average sizes (diameters) of the fully formed LNP, may be measured by dynamic light scattering on a Malvern Zetasizer. The LNP sample is diluted in phosphate buffered saline (PBS) so that the count rate is approximately 200-400 kcps. The data is presented as a weighted average of the intensity measure.
In some embodiments, the LNPs have a size of about 75 to about 120 nm. In some embodiments, the LNPs have a size of about 75 to about 100 nm. Unless indicated otherwise, all sizes referred to herein are the average sizes (diameters) of the fully formed nanoparticles, as measured by dynamic light scattering on a Malvern Zetasizer. The nanoparticle sample is diluted in phosphate buffered saline (PBS) so that the count rate is approximately 200-400 kcps. The data is presented as a weighted-average of the intensity measure (Z-average diameter).
Dynamic Light Scattering (“DLS”) is used to characterize the polydispersity index (“pdi”) and size of the LNPs of the present disclosure. DLS measures the scattering of light that results from subjecting a sample to a light source. PDI, as determined from DLS measurements, represents the distribution of particle size (around the mean particle size) in a population, with a perfectly uniform population having a PDI of zero. Electropheretic light scattering is used to characterize the surface charge of the LNP at a specified pH. The surface charge, or the zeta potential, is a measure of the magnitude of electrostatic repulsion/attraction between particles in the LNP suspension. Asymmetric-Flow Field Flow Fractionation—Multi-Angle Light Scattering (AF4-MALS) is used to separate particles in the composition by hydrodynamic radius and then measure the molecular weights, hydrodynamic radii and root mean square radii of the fractionated particles. […] Nanoparticle tracking analysis (NTA, Malvern Nanosight) can be used to determine particle size distribution as well as particle concentration. LNP samples are diluted appropriately and injected onto a microscope slide. A camera records the scattered light as the particles are slowly infused through field of view. After the movie is captured, the Nanoparticle Tracking Analysis processes the movie by tracking pixels and calculating a diffusion coefficient. This diffusion coefficient can be translated into the hydrodynamic radius of the particle. The instrument also counts the number of individual particles counted in the analysis to give particle concentration.
LNP compositions are analyzed for average particle size, polydispersity index (pdi), total RNA content, encapsulation efficiency of RNA, and zeta potential. LNP compositions may be further characterized by lipid analysis, AF4-MALS, NTA, and/or cryo-EM. Average particle size and polydispersity are measured by dynamic light scattering (DLS) using a Malvern Zetasizer DLS instrument. LNP samples were diluted with PBS buffer prior to being measured by DLS. Z-average diameter which is an intensity-based measurement of average particle size was reported along with number average diameter and pdi. A Malvern Zetasizer instrument is also used to measure the zeta potential of the LNP. Samples are diluted 1:17 (50 μL into 800 μL) in 0.1×PBS, pH 7.4 prior to measurement.

[2] = pKa of amine lipid by TNS fluorescence; format: physicochemical; conditions: probe TNS (6-(p-toluidino)-2-naphthalenesulfonic acid sodium salt), unformulated amine lipid in ethanol, sodium phosphate buffers -9.0
Protocol: The pKa of each amine lipid was determined according to the method in Jayaraman, et al. (Angewandte Chemie, 2012) with the following adaptations. The pKa was determined for unformulated amine lipid in ethanol. Lipid stock solutions (2.94 mM) were diluted into Sodium Phosphate Buffers (0.1 M, Boston Bioproducts) of different pH (pH-range: 4.5-9.0) yielding a final lipid concentration of approx. 100 μM. The test samples were supplemented with TNS {6-(p-Toluidino)-2-naphthalenesulfonic acid sodium salt}, incubated and the fluorescence intensity was measured using excitation and emission wavelengths of 321 nm and 448 nm, respectively. The recorded data were normalized and the respective pKa values were derived from sigmoidal fitting.

[3] = RNA encapsulation efficiency of LNP (Ribogreen fluorescence assay); format: physicochemical; conditions: LNP with the compound as amine lipid
Protocol: A fluorescence-based assay (Ribogreen®, ThermoFisher Scientific) is used to determine total RNA concentration and free RNA. Encapsulation efficiency is calculated as (Total RNA—Free RNA)/Total RNA. LNP samples are diluted appropriately with 1× TE buffer containing 0.2% Triton-X 100 to determine total RNA or 1× TE buffer to determine free RNA. Standard curves are prepared by utilizing the starting RNA solution used to make the compositions and diluted in 1× TE buffer+/−0.2% Triton-X 100. Diluted RiboGreen® dye (according to the manufacturer's instructions) is then added to each of the standards and samples and allowed to incubate for approximately 10 minutes at room temperature, in the absence of light. A SpectraMax M5 Microplate Reader (Molecular Devices) is used to read the samples with excitation, auto cutoff and emission wavelengths set to 488 nm, 515 nm, and 525 nm respectively. Total RNA and free RNA are determined from the appropriate standard curves.
Encapsulation efficiency is calculated as (Total RNA−Free RNA)/Total RNA. The same procedure may be used for determining the encapsulation efficiency of a DNA-based cargo component. For single-strand DNA, Oligreen Dye may be used and for double-strand DNA, Picogreen Dye.

mouse TTR = assay: Serum TTR ELISA in mice after LNP delivery; format: in vivo; conditions: mouse serum, relative to TSS control of same experiment
Protocol: For studies measuring in vivo editing in liver, CD-1 female mice were dosed at 0.1 mpk unless otherwise noted. Animals were euthanized at 6 or 7 days by exsanguinationvia cardiac puncture under isoflourane anesthesia. Liver tissue was collected from each animal for DNA extraction and analysis. Blood was collected into serum separator tubes or into tubes containing buffered sodium citrate for plasma as described herein. Cohorts of mice were measured for editing by Next-Generation Sequencing (NGS).
Blood was collected and the serum was isolated as indicated. The total mouse TTR serum levels were determined using a Mouse Prealbumin (Transthyretin) ELISA Kit (Aviva Systems Biology, Cat. OKIA00111). Briefly, sera were serial diluted with kit sample diluent, e.g. to a final dilution of 10,000-fold and/or 2,500-fold. The diluted sample was then added to the ELISA plates and the assay was then carried out according to directions. Serum TTR data from treatment groups are expressed as a percentage of vehicle control levels.

[4] = Expt. 1, composition ratio (mol %) 50/9/38/3 for Cmpnd 49, 50/10/38.5/1.5 for the others
[5] = Expt. 5, composition ratio (mol %) 50/10/38.5/1.5
[6] = Expt. 10, composition ratio (mol %) 50/9/38/3 for Cmpnd 49, 50/10/38.5/1.5 for the others
[7] = Expt. 6, composition ratio (mol %) 50/9/38/3 for Cmpnd 49, 50/10/38.5/1.5 for the others

CCCCC/C=C\C/C=C\CCCCCCCC(=O)OCC(COC(=O)CCCCCCC/C=C\C/C=C\CCCCC)OC(=O)CC(CCCCCCCC)OC(=O)NCCN(C)CC (centres unmarked) [Compound 52, 2-((3-(((2-(ethyl(methyl)amino)ethyl)carbamoyl)oxy)undecanoyl)oxy)propane-1,3-diyl (9Z,9′Z,12Z,12′Z)-bis(octadeca-9,12-dienoate)]
Num Ave Size (nm) [1, 4]: 74.35 nm | PDI [1, 4]: 0.03 | Z-Ave Size (nm) [1, 4]: 90.75 nm | pKa [2]: 6.26 | Encapsulation (%) [3, 4]: 98% | Serum TTR % TSS (mouse TTR; dose 0.1 mpk): 17.31 % TSS

CCCCC/C=C\C/C=C\CCCCCCCC(=O)OCC(COC(=O)CCCCCCC/C=C\C/C=C\CCCCC)OC(=O)CCC(CCCCCC)OC(=O)NC1CN(C)C1 (centres unmarked) [Compound 84, 2-((4-(((1-methylazetidin-3-yl)carbamoyl)oxy)decanoyl)oxy)propane-1,3-diyl (9Z,9′Z,12Z,12′Z)-bis(octadeca-9,12-dienoate)]
Num Ave Size (nm) [1, 5]: 75 nm | PDI [1, 5]: 0.03 | Z-Ave Size (nm) [1, 5]: 91.00 nm | pKa [2]: 7.39 | Encapsulation (%) [3, 5]: 99% | Serum TTR % TSS (mouse TTR; dose 0.03 mpk): 80.3 % TSS | Serum TTR % TSS (mouse TTR; dose 0.1 mpk): 73.2 % TSS

CCCCCCCCCCCOC(=O)CCCCCCCC(=O)OCC(COC(=O)CCCCCCCC(=O)OCCCCCCCCCCC)OC(=O)CCC(CCCCCCCC)OC(=O)NCCN(C)CC (centres unmarked) [Compound 60, O′1,O1-(2-((4-(((2-(ethyl(methyl)amino)ethyl)carbamoyl)oxy)dodecanoyl)oxy)propane-1,3-diyl) 9,9′-diundecyl di(nonanedioate)]
Num Ave Size (nm) [1, 4]: 79.57 nm | PDI [1, 4]: 0.07 | Z-Ave Size (nm) [1, 4]: 103.40 nm | pKa [2]: 6.22 | Encapsulation (%) [3, 4]: 97% | Serum TTR % TSS (mouse TTR; dose 0.1 mpk): 60.51 % TSS

CCCCCCCCCCCOC(=O)CCCCCCCC(=O)OCC(COC(=O)CCCCCCCC(=O)OCCCCCCCCCCC)OC(=O)CCCC(CCCCCCCC)OC(=O)NCCN(C)CC (centres unmarked) [Compound 61, O′1,O1-(2-((5-(((2-(ethyl(methyl)amino)ethyl)carbamoyl)oxy)tridecanoyl)oxy)propane-1,3-diyl) 9,9′-diundecyl di(nonanedioate)]
Num Ave Size (nm) [1, 4]: 79.7 nm | PDI [1, 4]: 0.06 | Z-Ave Size (nm) [1, 4]: 102.00 nm | pKa [2]: 6.29 | Encapsulation (%) [3, 4]: 97% | Serum TTR % TSS (mouse TTR; dose 0.1 mpk): 81.48 % TSS

CCCCC/C=C\C/C=C\CCCCCCCC(=O)OCC(COC(=O)CCCCCCC/C=C\C/C=C\CCCCC)COC(=O)CCCC(CCCCCCCC)OC(=O)NCCN(C)CC (centres unmarked) [Compound 55, 2-(13-methyl-7-octyl-3,9-dioxo-2,8-dioxa-10,13-diazapentadecyl)propane-1,3-diyl (9Z,9′Z,12Z,12′Z)-bis(octadeca-9,12-dienoate)]
Num Ave Size (nm) [1, 4]: 99.29 nm | PDI [1, 4]: 0.02 | Z-Ave Size (nm) [1, 4]: 117.30 nm | pKa [2]: 6.43 | Encapsulation (%) [3, 4]: 97% | Serum TTR % TSS (mouse TTR; dose 0.1 mpk): 72.79 % TSS

CCCCC/C=C\C/C=C\CCCCCCCC(=O)OCC(COC(=O)CCCCCCCC(=O)OCCCCCCCCCCC)OC(=O)CCC(CCCCCCCC)OC(=O)NCCN(C)CC (centres unmarked) [Compound 63, 1-(3-methyl-14-((((9Z,12Z)-octadeca-9,12-dienoyl)oxy)methyl)-9-octyl-7,12-dioxo-8,13-dioxa-3,6-diazapentadecan-15-yl) 9-undecyl nonanedioate]
Num Ave Size (nm) [1, 4]: 82.18 nm | PDI [1, 4]: 0.04 | Z-Ave Size (nm) [1, 4]: 106.00 nm | pKa [2]: 6.32 | Encapsulation (%) [3, 4]: 98% | Serum TTR % TSS (mouse TTR; dose 0.1 mpk): 83.86 % TSS

CCCCC/C=C\C/C=C\CCCCCCCC(=O)OCC(COC(=O)CCCCCCC/C=C\C/C=C\CCCCC)OC(=O)CCC(CCCCCCCC)OC(=O)NCCN1CCCCC1 (centres unmarked) [Compound 94, 2-((4-(((2-(piperidin-1-yl)ethyl)carbamoyl)oxy)dodecanoyl)oxy)propane-1,3-diyl (9Z,9′Z,12Z,12′Z)-bis(octadeca-9,12-dienoate)]
Num Ave Size (nm) [1, 6]: 53 nm | PDI [1, 6]: 0.06 | Z-Ave Size (nm) [1, 6]: 70 nm | pKa [2]: 5.8 | Encapsulation (%) [3, 6]: 98%

CCCCC/C=C\C/C=C\CCCCCCCC(=O)OCC(COC(=O)CCCCCCC/C=C\C/C=C\CCCCC)OC(=O)CC[C@H](CCCCCCCC)OC(=O)NCCN(C)CC [Compound 88, 2-(((S)-4-(((2-(ethyl(methyl)amino)ethyl)carbamoyl)oxy)dodecanoyl)oxy)propane-1,3-diyl (9Z,9′Z,12Z,12′Z)-bis(octadeca-9,12-dienoate)]
Num Ave Size (nm) [1, 7]: 73 nm | PDI [1, 7]: 0.02 | Z-Ave Size (nm) [1, 7]: 88.00 nm | Encapsulation (%) [3, 7]: 98% | Serum TTR % TSS (mouse TTR; dose 0.03 mpk): 75.06 % TSS | Serum TTR % TSS (mouse TTR; dose 0.1 mpk): 33.45 % TSS

CCCCC/C=C\C/C=C\CCCCCCCC(=O)OCC(COC(=O)CCCCCCC/C=C\C/C=C\CCCCC)OC(=O)CC[C@@H](CCCCCCCC)OC(=O)NCCN(C)CC [Compound 87, 2-(((R)-4-(((2-(ethyl(methyl)amino)ethyl)carbamoyl)oxy)dodecanoyl)oxy)propane-1,3-diyl (9Z,9′Z,12Z,12′Z)-bis(octadeca-9,12-dienoate)]
Num Ave Size (nm) [1, 7]: 63 nm | PDI [1, 7]: 0.06 | Z-Ave Size (nm) [1, 7]: 83.00 nm | Encapsulation (%) [3, 7]: 98% | Serum TTR % TSS (mouse TTR; dose 0.03 mpk): 80.21 % TSS | Serum TTR % TSS (mouse TTR; dose 0.1 mpk): 33.33 % TSS

CCCCC/C=C\C/C=C\CCCCCCCC(=O)OCC(COC(=O)CCCCCCC/C=C\C/C=C\CCCCC)COC(=O)CCC(CCCCCCCC)OC(=O)NCCN(C)CC (centres unmarked) [Compound 54, 2-(12-methyl-6-octyl-3,8-dioxo-2,7-dioxa-9,12-diazatetradecyl)propane-1,3-diyl (9Z,9′Z,12Z,12′Z)-bis(octadeca-9,12-dienoate)]
pKa [2]: 6.25 | Serum TTR % TSS (mouse TTR; dose 0.1 mpk): 18.32 % TSS
